The values below come from patent publication US10793563B2, “GCN2 inhibitors and uses thereof” (Merck Patent GmbH, priority 2018, dated 2020).

In one assay the target is GCN2 kinase (Homo sapiens (Human), UniProt Q9P2K8). In words: GCN2 Enzyme Inhibition Assay (Transcreener ADP2 fluorescence polarization). Type of assay: biochemical. The conditions noted are these: 280 μM ATP, 200 μM (RS)7 peptide, 4 nM GCN2, 25° C. The method in brief: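 At 25 °C, GCN2 kinase (typical final concentration 4 nM) and (RS)7 peptide in Tris-HCl pH 7.5 buffer with MgCl2, NaCl and DTT were preincubated with compound for 10 min, then ATP was added for a 1 h reaction. ADP was read by FP with antibody/Alexa633 tracer. Non-linear tight-binding analysis gave IC50 and apparent Ki.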
(In general: Fluorescence polarisation rises when a labelled molecule tumbles more slowly, as on binding a larger partner.)

The target of assay [1] is intracellular GCN2 (phosphorylation of the GCN2 substrate eIF2α) (Homo sapiens (Human), UniProt Q9P2K8). The assay can be described thus: GCN2 Cellular Inhibition Assay (AlphaScreen SureFire P-eIF2α Ser51, borrelidin-treated U2OS cells). Type of assay: cell-based. The settings on record: 10 μM borrelidin, 1 h, phosphorylated eIF2α Ser51, read-out: GCN2 Biomarker (IC50). The procedure, abridged: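 Phospho-eIF2α (Ser51) measured by AlphaScreen SureFire in lysates of U2OS cells stimulated 1 h at 37 °C with 10 μM borrelidin alongside compound, 4-fold dilutions from 40 μM. Inhibition expressed as percent relative to borrelidin-alone controls.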
A general note: Bead proximity is the source of the signal in Alpha formats.

For assay [2], the system named is primary human pan T-cells. The assay can be described thus: Human IL-2 Assay for GCN2 Inhibition (IL-2 secretion from T cells in low amino acid condition). The conditions noted are these: IL-2 secretion from human T cells stimulated with anti-CD3/CD28 in low amino acid condition, ELISA; for EC50: Homo sapiens, T-cell, 96 h, read-out: IL2/T-cell EC50; for IL2/T-cell EC50: 96 hours. Type of assay: cell-based. From the text:
Tumor microenvironment is profoundly immuno-suppressive. This may be attributed to the depletion of amino acids (like arginine and tryptophan) which triggers the activation of GCN2 in immune cells, including T cell and myeloid cells. In T cells, activation of GCN2 leads to reduce effector functions of CD8 T cells and induction and/or maintenance of immuno-suppressive T-regs. Inhibition of that immuno-suppressive response by GCN2 inhibitors enables an anti-cancer immune response by activating effector T-cells. Herein we describe an in-vitro system we established using human T-cells stimulated in low amino acid condition in order to engage the GCN2 biology. The method described involves the modulation of IL-2 levels secreted by human T cells in responses to the GCN2 inhibitors disclosed herein.
Amino acid-free RPMI was reconstituted with all but one of the amino acids found in standard RMPI (e.g. Arginine, Tryptophan), 10% charcoal-stripped fetal bovine serum, 100 Units/mL penicillin and 0.1 mg/mL streptomycin. Primary human pan T-cells were isolated using Pan T Cell Isolation Kit, human (MACS Miltenyi biotech Cat # Order no. 130-096-535) from apheresis cones and 5×104 pan T-cells per well. The purified T cells are seeded in Nunc™ 96-Well Polystyrene Round Bottom Microwell Plates (the cells are rested in No TRP media in a 15 ml falcon tube in the incubator for 30-45 minutes while titrations for tryptophan and the GCN2 inhibitor compound are made) A plate matrix was developed to titrate both a GCN2 inhibitor and the amino acid of interest ranging from “No Amino Acid” condition, up to the concentration found in the regular RPMI media (20 μM for TRP and 950 μM for Arginine). The cells were incubated for 30 min at 37° C. with the GCN2 inhibitor and then stimulated with 5×104 anti-CD3/CD28 Dynabeads® per well. After 96 hours of incubation the IL-2 level in the supernatant were measured using ELISA (R&D systems Cat # DY202 (Human IL-2 DuoSet ELISA). Data were plotted in GraphPad Prism software and EC50 is calculated.
(ELISA stands for enzyme-linked immunosorbent assay.)

Sequence of intracellular GCN2 (phosphorylation of the GCN2 substrate eIF2α) (Q9P2K8 whole entry): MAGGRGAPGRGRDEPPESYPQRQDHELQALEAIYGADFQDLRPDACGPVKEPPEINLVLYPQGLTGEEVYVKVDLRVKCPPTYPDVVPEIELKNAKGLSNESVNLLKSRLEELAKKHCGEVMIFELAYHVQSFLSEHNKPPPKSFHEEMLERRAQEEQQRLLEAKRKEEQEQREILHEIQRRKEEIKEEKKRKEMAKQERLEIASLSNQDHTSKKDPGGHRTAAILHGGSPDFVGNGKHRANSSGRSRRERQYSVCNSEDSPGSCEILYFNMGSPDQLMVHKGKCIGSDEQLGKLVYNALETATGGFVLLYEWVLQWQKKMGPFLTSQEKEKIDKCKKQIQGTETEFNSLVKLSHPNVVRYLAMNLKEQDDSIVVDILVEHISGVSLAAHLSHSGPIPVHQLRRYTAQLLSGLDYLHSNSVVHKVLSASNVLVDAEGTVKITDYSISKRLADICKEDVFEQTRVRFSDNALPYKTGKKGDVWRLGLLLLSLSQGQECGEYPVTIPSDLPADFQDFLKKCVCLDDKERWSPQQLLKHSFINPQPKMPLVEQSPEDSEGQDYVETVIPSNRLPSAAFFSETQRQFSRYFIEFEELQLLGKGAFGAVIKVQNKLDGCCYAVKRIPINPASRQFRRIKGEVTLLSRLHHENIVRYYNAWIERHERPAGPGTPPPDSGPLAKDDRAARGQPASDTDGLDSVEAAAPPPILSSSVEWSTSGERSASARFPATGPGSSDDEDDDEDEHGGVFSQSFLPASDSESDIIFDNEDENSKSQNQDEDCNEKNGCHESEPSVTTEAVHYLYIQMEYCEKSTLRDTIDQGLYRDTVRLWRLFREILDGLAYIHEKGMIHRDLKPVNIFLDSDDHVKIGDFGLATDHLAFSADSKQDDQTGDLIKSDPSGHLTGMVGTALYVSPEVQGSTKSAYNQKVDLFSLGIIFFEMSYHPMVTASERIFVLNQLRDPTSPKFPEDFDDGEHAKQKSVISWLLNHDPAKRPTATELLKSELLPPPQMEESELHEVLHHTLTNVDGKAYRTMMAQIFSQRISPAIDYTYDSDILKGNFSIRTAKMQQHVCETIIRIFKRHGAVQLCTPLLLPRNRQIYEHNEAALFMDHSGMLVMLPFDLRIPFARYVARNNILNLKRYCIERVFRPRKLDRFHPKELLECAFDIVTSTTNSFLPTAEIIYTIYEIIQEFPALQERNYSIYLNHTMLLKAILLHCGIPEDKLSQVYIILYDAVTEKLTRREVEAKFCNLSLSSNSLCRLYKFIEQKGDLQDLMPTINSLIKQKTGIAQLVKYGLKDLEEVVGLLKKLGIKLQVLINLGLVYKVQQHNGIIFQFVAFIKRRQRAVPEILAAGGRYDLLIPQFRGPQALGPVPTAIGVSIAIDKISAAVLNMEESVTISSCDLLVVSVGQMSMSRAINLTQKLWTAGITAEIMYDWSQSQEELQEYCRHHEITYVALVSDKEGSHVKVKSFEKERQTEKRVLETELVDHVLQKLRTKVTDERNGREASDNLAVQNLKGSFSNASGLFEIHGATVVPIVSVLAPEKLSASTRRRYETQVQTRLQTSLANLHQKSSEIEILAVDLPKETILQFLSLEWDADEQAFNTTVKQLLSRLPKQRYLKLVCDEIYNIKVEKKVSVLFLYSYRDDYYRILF
Sequence of GCN2 kinase (Q9P2K8 whole entry): as above

For the compound `C[C@@H]1CN(c2nccc(-c3cnc4ccc(Cl)cn34)n2)C[C@H](c2cn[nH]c2)O1` [I-248, 6-Chloro-3-{2-[(2R,6S)-2-methyl-6-(1H-pyrazol-4-yl)-morpholin-4-yl]-pyrimidin-4-yl}-imidazo[1,2-a]pyridine], the IC50 on GCN2 kinase is under 0.01 µM; in assay [1], under 0.5 µM. Besides, the EC50 in assay [2] was 0.1 to 0.5 µM.
On to `C[C@@H]1C[C@H](c2cn[nH]c2)CN(c2nccc(-c3cnc4ccc(C5CC5)cn34)n2)C1` [I-249, 6-Cyclopropyl-3-{2-[(3R,5R)-3-methyl-5-(1H-pyrazol-4-yl)-piperidin-1-yl]-pyrimidin-4-yl}-imidazo[1,2-a]pyridine], for which the IC50 is under 0.01 µM against GCN2 kinase and under 0.5 µM in assay [1]. In addition, the EC50 in assay [2] was in the range of 0.1 to 0.5 µM.
For the compound `C[C@H]1C[C@@H](c2cn[nH]c2)CN(c2nccc(-c3cnc4ccc(C5CC5)cn34)n2)C1` [I-250, 6-Cyclopropyl-3-{2-[(3 S,5S)-3-methyl-5-(1H-pyrazol-4-yl)-piperidin-1-yl]-pyrimidin-4-yl}-imidazo[1,2-a]pyridine], the IC50 against GCN2 kinase is 0.01 to 0.1 µM; in assay [1], under 0.5 µM. For the same compound, the “IL2/T-cell EC50” value in assay [2] is given as “− (“−” for not active)”.
With `C[C@@H]1CN(c2ccnc(-c3cnc4ccc(OC(F)(F)F)cn34)n2)C[C@H](c2cn[nH]c2)O1` [I-293, (2R,6 S)-2-methyl-6-(1H-pyrazol-4-yl)-4-(2-(6-(trifluoromethoxy)imidazo[1,2-a]pyridin-3-yl)pyrimidin-4-yl)morpholine], the IC50 is under 0.01 µM against GCN2 kinase and under 0.5 µM in assay [1]. In addition, the EC50 in assay [2] is under 0.1 µM.
As to `Cc1[nH]ncc1[C@@H]1C[C@H](O)CN(c2ccnc(-c3cnc4ccc(C(F)(F)F)cn34)n2)C1` [I-314, (3 S,5S)-5-(3-Methyl-1H-pyrazol-4-yl)-1-[2-(6-trifluoromethyl-imidazo[1,2-a]pyridin-3-yl)-pyrimidin-4-yl]-piperidin-3-ol], the results for the IC50 (on GCN2 kinase; in assay [1]) were under 0.01 µM and under 0.5 µM, respectively. In assay [2], the “IL2/T-cell EC50” value was “− (“−” for not active)”.
On to `Cc1[nH]ncc1[C@H]1C[C@@H](O)CN(c2ccnc(-c3cnc4ccc(C(F)(F)F)cn34)n2)C1` [I-315, (3R,5R)-5-(3-Methyl-1H-pyrazol-4-yl)-1-[2-(6-trifluoromethyl-imidazo[1,2-a]pyridin-3-yl)-pyrimidin-4-yl]-piperidin-3-ol], for which the half-inhibitory concentration (IC50) is under 0.01 µM against GCN2 kinase and under 0.5 µM in assay [1]. Also, the EC50 in assay [2] is 0.1 to 0.5 µM.
Take `NC(=O)[C@H]1CN(c2ccnc(-c3cnc4ccc(C(F)(F)F)cn34)n2)CCN1C1CC1` [I-323, (R)-1-cyclopropyl-4-(2-(6-(trifluoromethyl)imidazo[1,2-a]pyridin-3-yl)pyrimidin-4-yl)piperazine-2-carboxamide]: the IC50 is under 0.01 µM against GCN2 kinase and 0.5 to 5 µM in assay [1]. For the same compound, the EC50 in assay [2] is over 0.5 µM.
As to `FC(F)(F)c1ccc2ncc(-c3nccc(N4CCN(CC5CCOCC5)C(c5cn[nH]c5)C4)n3)n2c1` (stereo not drawn) [I-354, 3-(4-(3-(1H-pyrazol-4-yl)-4-((tetrahydro-2H-pyran-4-yl)methyl)piperazin-1-yl)pyrimidin-2-yl)-6-(trifluoromethyl)imidazo[1,2-a]pyridine], the IC50 was under 0.01 µM against GCN2 kinase and under 0.5 µM in assay [1]. In addition, the EC50 in assay [2] lay in the range of 0.1 to 0.5 µM.
As for `Cc1n[nH]cc1[C@@H]1CN(c2ccnc(-c3cnc4cc(Cl)c(C(F)(F)F)cn34)n2)C[C@H](C)O1` [I-359, (2S,6R)-4-(2-(7-chloro-6-(trifluoromethyl)imidazo[1,2-a]pyridin-3-yl)pyrimidin-4-yl)-2-methyl-6-(3-methyl-1H-pyrazol-4-yl)morpholine], the IC50 against GCN2 kinase was under 0.01 µM; in assay [1], under 0.5 µM. Also, the EC50 in assay [2] lay within 0.1 to 0.5 µM.
Take `Cc1[nH]ncc1[C@H]1[C@@H](C)N(c2ccnc(-c3cnc4ccc(C(F)(F)F)cn34)n2)CCN1C1COC1` [I-366]: the IC50 on GCN2 kinase was under 0.01 µM; in assay [1], under 0.5 µM. In assay [2], the EC50 is under 0.1 µM.

As usually defined, the IC50 is the concentration needed to halve the response being measured.
